{
  "source": "paper PMC12095788",
  "about": "(Communications Chemistry, 2025)",
  "key": {"Gal4-Nurr1 I500W/V373W": {"target": "T1, Gal4-Nurr1 I500W/V373W (Homo sapiens, UniProt P43354, I500W/V373W)", "T1 construct": "expressed in transfected cells; host or cells: HEK293T", "T1 sequence (P43354 360-595 V373W/I500W limits assumed)": "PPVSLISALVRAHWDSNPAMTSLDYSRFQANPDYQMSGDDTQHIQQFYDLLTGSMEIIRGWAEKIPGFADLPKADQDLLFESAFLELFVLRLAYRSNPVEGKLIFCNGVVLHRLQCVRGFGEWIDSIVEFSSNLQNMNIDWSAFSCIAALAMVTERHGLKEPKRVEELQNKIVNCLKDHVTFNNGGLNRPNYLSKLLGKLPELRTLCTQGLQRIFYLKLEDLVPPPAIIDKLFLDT", "assay": "Gal4-Nurr1 hybrid reporter gene assay, double mutant I500W/V373W", "format": "cell-based", "conditions": "fold reporter activation vs. DMSO"}, "Gal4-Nurr1 I500F": {"target": "T2, Gal4-Nurr1 I500F (Homo sapiens, UniProt P43354, I500F)", "T2 construct": "expressed in transfected cells; host or cells: HEK293T", "T2 sequence (P43354 360-595 I500F limits assumed)": "as the sequence (P43354 360-595 V373W/I500W limits assumed) above, with W14V, W141F counted along it", "assay": "Gal4-Nurr1 hybrid reporter gene assay, mutant I500F", "format": "cell-based", "conditions": "vs wt"}, "Nurr1 LBD (wt) [1]": {"target": "T3, Nurr1 LBD (wt) (Homo sapiens, UniProt P43354)", "assay": "ITC ligand binding to Nurr1 wt LBD", "conditions": "for n ligand binding to Nurr1 LBD: ITC stoichiometry; for n ligand binding to Nurr1 LBD / TΔS ligand binding to Nurr1 LBD: wt LBD"}, "Gal4-Nurr1 H372F": {"target": "T4, Gal4-Nurr1 H372F (Homo sapiens, UniProt P43354, H372F)", "T4 construct": "expressed in transfected cells; host or cells: HEK293T", "T4 sequence (P43354 360-595 H372F limits assumed)": "as the sequence (P43354 360-595 V373W/I500W limits assumed) above, with H13F, W14V, W141I counted along it", "assay": "Gal4-Nurr1 hybrid reporter gene assay, mutant H372F", "format": "cell-based", "conditions": "vs wt"}, "Nurr1 LBD - CoREST": {"target": "T5, Nurr1 LBD - CoREST (Homo sapiens, UniProt P43354)", "T5 construct": "sGFP-Nurr1[26]; LBD as FRET acceptor; made in house", "T5 sequence (P43354 360-595 limits assumed)": "as the sequence (P43354 360-595 V373W/I500W limits assumed) above, with W14V, W141I counted along it", "assay": "HTRF co-regulator recruitment assay, CoREST", "format": "biochemical", "conditions": "biotinylated CoREST peptide, sGFP-Nurr1 LBD", "description": "(§1) Homogeneous time-resolved fluorescence energy transfer (HTRF) experiments were used to study the recruitment of co-regulator peptides to the Nurr1-LBD in the presence or absence of test compounds. Terbium cryptate as streptavidin conjugate (Tb-SA; Cisbio Bioassays, Codolet, France) was used as FRET donor for stable coupling to biotinylated recombinant Nurr1 LBD protein. Fluorescein-labeled co-regulator peptides were used as FRET acceptors (peptide sequences are reported in Supplementary Tab. 4). […] Recruitment of CoREST and Lmx1b peptides was studied using biotin-labeled peptides for stable coupling to Tb-SA as FRET donor and sGFP-Nurr1[26] LBD as FRET acceptor. […] Experiments were carried out in 384 well format using white flat bottom small volume polystyrol microtiter plates (Greiner Bio-One, Frickenhausen, Germany). After 2 h incubation at rt, fluorescence intensities (FI) after excitation at 340 nm were recorded at 520 nm for fluorescein acceptor fluorescence and 620 nm for Tb-SA donor fluorescence on a SPARK plate reader (Tecan Group Ltd.). FI520 nm was divided by FI620 nm and multiplied with 10,000 to give a dimensionless HTRF signal."}, "[2]": {"target": "T6, Gal4-Nurr1 (wt human Nurr1 LBD) (Homo sapiens, UniProt P43354)", "T6 construct": "expressed in transfected cells; host or cells: HEK293T", "T6 sequence (P43354 360-595 limits assumed)": "as the sequence (P43354 360-595 V373W/I500W limits assumed) above, with W14V, W141I counted along it", "assay": "Gal4-Nurr1 hybrid reporter gene assay (wild-type)", "format": "cell-based"}, "Nurr1 LBD - NCOR1": {"target": "T7, Nurr1 LBD - NCOR1 (Homo sapiens, UniProt P43354)", "T7 construct": "a plasmid construct encoding Nurr1 (aa 364-598) in a pMal vector system; MBP (cleaved yes); made in house; host or cells: E. coli BL21-R3-pRARE2", "T7 sequence (P43354 364-598)": "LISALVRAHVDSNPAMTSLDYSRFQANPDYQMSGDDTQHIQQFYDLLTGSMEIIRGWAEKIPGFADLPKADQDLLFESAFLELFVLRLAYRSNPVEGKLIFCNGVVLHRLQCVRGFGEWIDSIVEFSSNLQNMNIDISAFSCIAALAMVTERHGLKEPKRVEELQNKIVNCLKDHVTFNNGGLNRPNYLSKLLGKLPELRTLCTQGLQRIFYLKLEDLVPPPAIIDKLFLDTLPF", "assay": "HTRF co-regulator recruitment assay, NCOR1", "format": "biochemical", "conditions": "fluorescein labeled corepressor peptide, read-out: IC50 NCOR1 displacement from Nurr1 LBD", "description": "as §1"}, "[3]": {"target": "full-length human Nurr1 (NurRE) (Homo sapiens, UniProt P43354)", "sequence (P43354 whole entry)": "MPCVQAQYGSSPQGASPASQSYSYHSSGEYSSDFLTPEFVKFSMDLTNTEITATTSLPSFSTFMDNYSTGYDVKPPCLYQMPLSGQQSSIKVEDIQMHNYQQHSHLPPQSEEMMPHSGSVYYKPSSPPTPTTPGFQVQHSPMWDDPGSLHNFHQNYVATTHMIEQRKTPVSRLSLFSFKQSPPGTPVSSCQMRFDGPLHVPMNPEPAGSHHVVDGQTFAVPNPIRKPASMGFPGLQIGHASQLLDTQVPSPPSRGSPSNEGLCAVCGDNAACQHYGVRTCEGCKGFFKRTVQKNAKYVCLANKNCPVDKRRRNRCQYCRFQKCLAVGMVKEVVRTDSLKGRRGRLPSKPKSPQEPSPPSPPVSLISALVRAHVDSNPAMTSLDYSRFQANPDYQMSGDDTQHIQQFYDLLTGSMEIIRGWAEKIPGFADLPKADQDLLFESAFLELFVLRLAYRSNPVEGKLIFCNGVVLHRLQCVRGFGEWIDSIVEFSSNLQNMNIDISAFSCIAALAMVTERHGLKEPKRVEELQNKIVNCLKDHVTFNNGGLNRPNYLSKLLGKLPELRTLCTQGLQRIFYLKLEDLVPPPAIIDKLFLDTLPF", "assay": "Full-length Nurr1 reporter gene assay, homodimer response element (NurRE)", "format": "cell-based"}, "Nurr1 LBD - Lmx1b": {"target": "T8, Nurr1 LBD - Lmx1b (Homo sapiens, UniProt P43354)", "T8 construct": "sGFP-Nurr1[26]; LBD as FRET acceptor; made in house", "T8 sequence (P43354 360-595 limits assumed)": "as the sequence (P43354 360-595 V373W/I500W limits assumed) above, with W14V, W141I counted along it", "T8 sequence (O60663 382-402 partner limits assumed)": "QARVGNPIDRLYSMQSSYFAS", "assay": "HTRF co-regulator recruitment assay, Lmx1b", "format": "biochemical", "conditions": "biotinylated Lmx1b peptide, sGFP-Nurr1 LBD", "description": "as §1"}, "[4]": {"target": "T9, Nurr1 LBD - RXRα LBD heterodimer (Homo sapiens, UniProt P43354)", "T9 sequence (P43354 364-598, one chain of several)": "as the sequence (P43354 364-598) above", "assay": "ITC Nurr1-RXR dimerization", "conditions": "ITC stoichiometry, ligand 200 µM"}, "Nurr1 LBD - NRIP": {"target": "T10, Nurr1 LBD - NRIP (Homo sapiens, UniProt P43354)", "T10 construct": "a plasmid construct encoding Nurr1 (aa 364-598) in a pMal vector system; MBP (cleaved yes); made in house; host or cells: E. coli BL21-R3-pRARE2", "T10 sequence (P43354 364-598)": "as above", "assay": "HTRF co-regulator recruitment assay, NRIP", "format": "biochemical", "conditions": "fluorescein labeled coactivator peptide, read-out: IC50 NRIP displacement from Nurr1 LBD", "description": "as §1"}, "Nurr1 LBD - SMRT": {"target": "T11, Nurr1 LBD - SMRT (Homo sapiens, UniProt P43354)", "T11 construct": "a plasmid construct encoding Nurr1 (aa 364-598) in a pMal vector system; MBP (cleaved yes); made in house; host or cells: E. coli BL21-R3-pRARE2", "T11 sequence (P43354 364-598)": "as above", "assay": "HTRF co-regulator recruitment assay, SMRT", "format": "biochemical", "conditions": "fluorescein labeled corepressor peptide, read-out: IC50 SMRT displacement from Nurr1 LBD", "description": "as §1"}, "Nurr1 LBD - PIASγ": {"target": "T12, Nurr1 LBD - PIASγ (Homo sapiens, UniProt P43354)", "T12 construct": "a plasmid construct encoding Nurr1 (aa 364-598) in a pMal vector system; MBP (cleaved yes); made in house; host or cells: E. coli BL21-R3-pRARE2", "T12 sequence (P43354 364-598)": "as above", "assay": "HTRF co-regulator recruitment assay, PIASγ", "format": "biochemical", "conditions": "fluorescein labeled corepressor peptide, read-out: IC50 PIASγ displacement from Nurr1 LBD", "description": "as §1"}, "[5]": {"target": "T9, Nurr1 LBD - RXRα LBD heterodimer", "assay": "HTRF Nurr1-RXRα heterodimer formation assay", "format": "biochemical", "set-up": "a plasmid construct encoding Nurr1 (aa 364-598) in a pMal vector system; MBP (cleaved yes); made in house; host or cells: E.coli BL21-R3-pRARE2 (biotinylated Nurr1 LBD)"}, "[6]": {"target": "full-length human Nurr1 / RXR heterodimer (DR5) (Homo sapiens, UniProt P43354)", "sequence (P43354 whole entry, one chain of several)": "as the sequence (P43354 whole entry) above", "assay": "Full-length Nurr1 reporter gene assay, RXR-heterodimer response element (DR5)", "format": "cell-based"}, "Nurr1 LBD - NCoA6": {"target": "T13, Nurr1 LBD - NCoA6 (Homo sapiens, UniProt P43354)", "T13 construct": "a plasmid construct encoding Nurr1 (aa 364-598) in a pMal vector system; MBP (cleaved yes); made in house; host or cells: E. coli BL21-R3-pRARE2", "T13 sequence (P43354 364-598)": "as the sequence (P43354 364-598) above", "assay": "HTRF co-regulator recruitment assay, NCoA6", "format": "biochemical", "conditions": "fluorescein labeled coactivator peptide, read-out: IC50 NCoA6 displacement from Nurr1 LBD", "description": "as §1"}, "Nurr1 LBD (wt) [7]": {"target": "T3, Nurr1 LBD (wt)", "assay": "Binding kinetics by biolayer interferometry (BLI)", "set-up": "For generation of biotinylated Nurr1 a plasmid construct encoding Nurr1 (aa 364-598) in a pMal vector system; MBP (cleaved yes); made in house; host or cells: E.coli BL21-R3-pRARE2", "conditions": "read-out: dissociation rate koff"}, "[8]": {"target": "full-length human Nurr1 (NBRE) (Homo sapiens, UniProt P43354)", "sequence (P43354 whole entry)": "as the sequence (P43354 whole entry) above", "assay": "Full-length Nurr1 reporter gene assay, monomer response element (NBRE)", "format": "cell-based"}},
  "data": [
    {"compound": "CC(C)n1c(/C=C/C(O)CC(O)CC(=O)O)c(-c2ccc(F)cc2)c2ccccc21", "note": "(stereo not shown) [fluvastatin, reference compound]", "values": [
      {"measurement": "activation of Gal4-Nurr1 double mutant I500W/V373W", "setting": "Gal4-Nurr1 I500W/V373W", "value": "responded"},
      {"measurement": "effect of I500F mutation on Nurr1 activation by the ligand", "setting": "Gal4-Nurr1 I500F", "value": "did not alter"},
      {"measurement": "n ligand binding to Nurr1 LBD", "setting": "Nurr1 LBD (wt) [1]", "value": "0.90±0.04"},
      {"measurement": "TΔS ligand binding to Nurr1 LBD", "setting": "Nurr1 LBD (wt) [1]; ITC", "value": "3.7 ± 0.3", "unit": "kcal/mol"},
      {"measurement": "effect of H372F mutation on Nurr1 activation by the ligand", "setting": "Gal4-Nurr1 H372F", "value": "did not alter"},
      {"measurement": "effect on CoREST recruitment to Nurr1 LBD", "setting": "Nurr1 LBD - CoREST", "value": "slightly reduced"}
    ]},
    {"compound": "O=C(O)C1=C(C(=O)Nc2ccc(-c3ccccc3OCc3ccccc3)cc2F)CCC1", "note": "[compound 1, 2-{[2’-(Benzyloxy)-3-fluoro-[1,1’-biphenyl]-4-yl]carbamoyl}cyclopent-1-ene-1-carboxylic acid]", "values": [
      {"measurement": "EC50", "setting": "[2]; HEK293T, Gal4 hybrid reporter, wt", "value": "0.03 ± 0.01", "unit": "µM"},
      {"measurement": "potency on Gal4-Nurr1 relative to vidofludimus", "setting": "[2]; higher potency than vidofludimus", "value": 10, "unit": "fold"},
      {"measurement": "IC50", "setting": "Nurr1 LBD - NCOR1", "value": "4 ± 1", "unit": "µM"},
      {"measurement": "EC50", "setting": "[3]", "value": "0.07 ± 0.01", "unit": "µM"},
      {"measurement": "effect on Lmx1b recruitment to Nurr1 LBD", "setting": "Nurr1 LBD - Lmx1b", "value": "no effect"},
      {"measurement": "n Nurr1 LBD – RXR LBD", "setting": "[4]", "value": "0.98±0.09"},
      {"measurement": "IC50", "setting": "Nurr1 LBD - NRIP", "value": "7 ± 2", "unit": "µM"},
      {"measurement": "IC50", "setting": "Nurr1 LBD - SMRT", "value": "5 ± 2", "unit": "µM"},
      {"measurement": "IC50", "setting": "Nurr1 LBD - PIASγ", "value": "12 ± 2", "unit": "µM"},
      {"measurement": "effect on Nurr1-RXR heterodimerization", "setting": "[5]", "value": "weakened"},
      {"measurement": "Kd", "setting": "Nurr1 LBD (wt) [1]", "value": 0.11, "unit": "µM"},
      {"measurement": "n ligand binding to Nurr1 LBD", "setting": "Nurr1 LBD (wt) [1]", "value": "1.00±0.04"},
      {"measurement": "TΔS ligand binding to Nurr1 LBD", "setting": "Nurr1 LBD (wt) [1]; ITC", "value": "-5.5 ± 1.8", "unit": "kcal/mol"},
      {"measurement": "affinity to Nurr1 LBD relative to vidofludimus", "setting": "Nurr1 LBD (wt) [1]; enhanced affinity vs vidofludimus, ITC", "value": 7, "unit": "fold"},
      {"measurement": "effect on CoREST recruitment to Nurr1 LBD", "setting": "Nurr1 LBD - CoREST", "value": "slightly reduced"},
      {"measurement": "EC50", "setting": "[6]", "value": "0.06 ± 0.01", "unit": "µM"},
      {"measurement": "IC50", "setting": "Nurr1 LBD - NCoA6", "value": "7 ± 2", "unit": "µM"},
      {"measurement": "koff", "setting": "Nurr1 LBD (wt) [7]", "value": 0.0224, "unit": "s⁻¹"},
      {"measurement": "EC50", "setting": "[8]", "value": "0.06 ± 0.01", "unit": "µM"}
    ]}
  ]
}
